Data set [1] concerns the target T1, Lin28_ZKD (Homo sapiens, UniProt Q9H9Z2).
T1 construct: construct encoding amino acids 124–186 of human Lin28; His6; made in house; host or cells: Escherichia coli BL21 (DE3) Codon+ (RIL)
T1 sequence (Q9H9Z2 124-186): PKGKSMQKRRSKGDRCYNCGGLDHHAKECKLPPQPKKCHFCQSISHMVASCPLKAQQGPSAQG
Nature of the data set: Fluorescence polarization competition assay (displacement of let7FAM from Lin28_ZKD). Format: binding. The protocol:
Fluorescence Polarization Assay. Fluorescence polarization titration assay was carried out by titrating Lin28_ZKD protein into FAM-labeled PreE-let-7 at a 10 nM final concentration and buffer (10 mM HEPES, 150 mM NaCl, 10 µM ZiCl2, pH 7,4). The assay plate was briefly vortexed, and air bubbles were removed by spinning at 1000 rpm. The fluorescence anisotropy was measured on a Spectra Max Paradigm multimode plate reader (Molecular Devices). The fluorescence polarization competition […]
preE-let-7. The concentration of Lin28_ ZKD is kept at 40 nM, a value in the range of the dissociation constant of Lin28_ZKD and preE-let-7 determined through fluorescence polarization titration assay, whereas preE-let-7 concentration is kept constant at 10 nM. FP competitive binding assays were performed on 384-well plates (#3575, Corning) with a total well volume of 10 µL.
Fluorescence polarization readings were transferred into Prism 7.0 (GraphPad). All fluorescence polarization assays were repeated at least three times and the anisotropy values fitted using GraphPad Prism software using 1:1 binding/inhibition model. […]

For data set [2], the target named is T1, Lin28_ZKD. Nature of the data set: NMR 1H-15N HSQC titration of Lin28_ZKD. Format: binding. The following applies: 10 mM HEPES pH 7.0, 303K.
Excerpt: The oligonucleotide element of an RNA‐PROTAC binds its target RBP via interactions at the riboses and the backbone, as well as the nucleobases. […] Thus, we used the same method to examine how various ribose modifications of L28RBE (Table 1, Figure S1) might affect binding of an RNA‐PROTAC to Lin28_ZKD.
The subject of data set [3] is K562 cells. Kind of data set: Intracellular uptake of FAM-labelled oligonucleotides, fluorescence microscopy. Format: cell-based, human. The following applies: FAM-conjugated, 1 µM, 24 h.
For data set [4], the system named is Lin28A. Kind of data set: Western blot of Lin28A in K562 cells. Format: cell-based, human. The note with it: K562 cells, 48 h, western blot; three independent experiments. The source says:
Finally, we tested RNA‐PROTACs for their ability to degrade their target in two cell lines: the embryonic NT2/D1 cell line, which expresses high levels of Lin28A, ^[13a] and K562 cells which express Lin28A and Lin28B. […] Finally, we co‐treated K562 cells with ORN3P1 and MG132, a reversible inhibitor of the 26S proteasome. […] In order to explore the versatility of RNA‐PROTACs with non peptide‐based VHL ligands, we conjugated small‐molecule VH032 ^[38] to ORN3 via an amino linker to yield ORN3VH032 (Figure S1). […]

Where two headings read alike, the source gives them in different places.

In turn, `CC[C@H](C)[C@H](NC(=O)[C@H](Cc1ccc(O)cc1)NC(=O)[C@@H]1C[C@@H](O)CN1C(=O)[C@H](C)NC(=O)[C@H](CC(C)C)NC(=O)CCCCCNC(=O)[C@@H](N)CSC1CC(=O)N(CCOP(=O)(S)OC[C@H]2O[C@@H](n3cnc4c(N)ncnc43)[C@H](OC)[C@@H]2OP(=O)(S)OC[C@H]2O[C@@H](n3cnc4c(=O)[nH]c(N)nc43)[C@H](OC)[C@@H]2OP(=O)(S)OC[C@H]2O[C@@H](n3cnc4c(=O)[nH]c(N)nc43)[C@H](OC)[C@@H]2OP(=O)(S)OC[C@H]2O[C@@H](n3cnc4c(N)ncnc43)[C@H](OC)[C@@H]2OP(=O)(S)OC[C@H]2O[C@@H](n3cnc4c(=O)[nH]c(N)nc43)[C@H](OC)[C@@H]2OP(=O)(S)OC[C@H]2O[C@@H](n3cnc4c(N)ncnc43)[C@H](OC)[C@@H]2OP(=O)(S)OC[C@H]2O[C@@H](n3ccc(=O)[nH]c3=O)[C@H](OC)[C@@H]2O)C1=O)C(=O)O` (stereo partly drawn) [ORN4P1] returned an IC50 in data set [1] of 208 ± 27.4 nM.
Still for that read-out and setting: the same measure for `CCCC[C@H](NC(=O)[C@H](C)NC(=O)[C@H](CC(C)C)NC(=O)CCCCCNC(=O)[C@@H](N)CSC1CC(=O)N(CCOP(=O)(S)OC[C@H]2O[C@@H](n3cnc4c(N)ncnc43)[C@H](OC)[C@@H]2OP(=O)(S)OC[C@H]2O[C@@H](n3cnc4c(=O)[nH]c(N)nc43)[C@H](OC)[C@@H]2OP(=O)(S)OC[C@H]2O[C@@H](n3cnc4c(=O)[nH]c(N)nc43)[C@H](OC)[C@@H]2OP(=O)(S)OC[C@H]2O[C@@H](n3cnc4c(N)ncnc43)[C@H](OC)[C@@H]2OP(=O)(S)OC[C@H]2O[C@@H](n3cnc4c(=O)[nH]c(N)nc43)[C@H](OC)[C@@H]2OP(=O)(S)OC[C@H]2O[C@@H](n3cnc4c(N)ncnc43)[C@H](OC)[C@@H]2OP(=O)(S)OC[C@H]2O[C@@H](n3ccc(=O)[nH]c3=O)[C@H](OC)[C@@H]2O)C1=O)C(=O)N[C@@H](Cc1ccc(O)cc1)C(=O)N[C@H](C(=O)O)[C@@H](C)CC` (stereo partly drawn) [ORN4Pcon]: 206 ± 2.1 nM.
For “ORN7: AGGAGAUAACU, PS-MOE (all 2'-MOE, all phosphorothioate, methylation of C and T or U not given here; further chemistry not fully specified)”, the IC50 in data set [1] (Table 1, 40 nM Lin28_ZKD, 10 nM FAM-preE-let-7, 10 mM HEPES, 150 mM NaCl, pH 7.4, 30 min at 25 °C, 384-well, repeated at least three times, read-out: IC 50 determined by fluorescence polarization) came out at 162 ± 38 nM. The “NMR chemical shift perturbation / signal change of Lin28_ZKD” value in data set [2] (1H-15N HSQC, 1:1 ratio) is recorded as “some of the NMR signals broadened or disappeared”. The “precipitation with Lin28_ZKD in NMR titration” value in data set [2] (at higher concentrations) is given as “precipitation at higher concentrations was also observed”. Moreover, in data set [3], the intracellular localization result was “visible in the cytosol and the nuclei of cells”. Also, in data set [3] (compared with ORN3), the relative uptake entry is “higher than that of ORN3”.
With `CC[C@H](C)[C@H](NC(=O)[C@H](Cc1ccc(O)cc1)NC(=O)[C@@H]1C[C@@H](O)CN1C(=O)[C@H](C)NC(=O)[C@H](CC(C)C)NC(=O)CCCCCNC(=O)[C@@H](N)CSC1CC(=O)N(CCOP(=O)(S)OC[C@H]2O[C@@H](n3cc(C)c(=O)[nH]c3=O)[C@H](OCCOC)[C@@H]2OP(=O)(S)OC[C@H]2O[C@@H](n3cc(C)c(=O)[nH]c3=O)[C@H](OCCOC)[C@@H]2OP(=O)(S)OC[C@H]2O[C@@H](n3cc(C)c(=O)[nH]c3=O)[C@H](OCCOC)[C@@H]2OP(=O)(S)OC[C@H]2O[C@@H](n3cnc4c(N)ncnc43)[C@H](OCCOC)[C@@H]2OP(=O)(S)OC[C@H]2O[C@@H](n3cc(C)c(=O)[nH]c3=O)[C@H](OCCOC)[C@@H]2OP(=O)(S)OC[C@H]2O[C@@H](n3cc(C)c(=O)[nH]c3=O)[C@H](OCCOC)[C@@H]2OP(=O)(S)OC[C@H]2O[C@@H](n3cnc4c(=O)[nH]c(N)nc43)[C@H](OCCOC)[C@@H]2O)C1=O)C(=O)O` (stereo partly drawn) [ORN5P1], in data set [1] (displacement of let7FAM from Lin28_ZKD), the “activity in FP competition assay (in words)” value is recorded as “weak effect on Lin28_ZKD”. In addition, the “Lin28A suppression (in words)” value in data set [4] was “inactive”.

The values are drawn from paper PMC7898822, “RNA‐PROTACs: Degraders of RNA‐Binding Proteins” (Angewandte Chemie (International Ed. in English), 2020).
